Results taken from patent US4002530A, “6-Aminopenicillanic acid derivative” (Recherche et Industrie Therapeutiques (R.I.T.), priority 1975, dated 1977).
In brackets after ≈: the same amount, converted by molar mass. Where two headings read alike, the source gives them in different places.

How the values were obtained:
Corynebacterium xerosis = experiment: broth dilution test, minimum inhibitory concentration; assay type: cell-based; conditions: about 20 hours at 35° C, tested as monoammonium salt
Shigella sonnei = experiment: as above; assay type: cell-based; conditions: about 20 hours at 35° C, tested as monoammonium salt
Description: (§1) Antibiotic RIT D-2214 has been tested in form of the mono ammonium salt in position 3 of the penam nucleus and, for that reason, is herein below charcterized as this monoammonium salt.
(§2) The inhibitory levels were determined by the broth dilution test. A series of tubes containing varied concentrations of the monoammonium salt of antibiotic RIT D-2214 were inoculated with the test organism to determine the minimum concentration of the ammonium salt of antibiotic RIT D-2214 in mcg/ml. in the broth substrate which inhibited organism growth for a period of about twenty hours at 35° C.

[1] = test system: Staphylococcus aureus Pen.resist.; experiment: as above; assay type: cell-based; conditions: penicillin resistant, about 20 hours at 35° C, tested as monoammonium salt
Bacillus subtilis = experiment: as above; assay type: cell-based; conditions: about 20 hours at 35° C, tested as monoammonium salt
E. coli Pen. resistant = experiment: as above; assay type: cell-based; conditions: Escherichia coli, penicillin resistant, about 20 hours at 35° C, tested as monoammonium salt
Alcaligenes faecalis = experiment: as above; assay type: cell-based; conditions: about 20 hours at 35° C, tested as monoammonium salt
Klebsiella pneumoniae = experiment: as above; assay type: cell-based; conditions: about 20 hours at 35° C, tested as monoammonium salt
Salmonella meleagridis = experiment: as above; assay type: cell-based; conditions: about 20 hours at 35° C, tested as monoammonium salt
Salmonella typhi = experiment: as above; assay type: cell-based; conditions: Salmonella enterica, 20 h, read-out: Minimum Inhibitory concentration
Salmonella typhimurium = experiment: as above; assay type: cell-based; conditions: Salmonella enterica, about 20 hours at 35° C, tested as monoammonium salt
Salmonella panama = experiment: as above; assay type: cell-based; conditions: Salmonella enterica, about 20 hours at 35° C, tested as monoammonium salt
Salmonella anatum = experiment: as above; assay type: cell-based; conditions: Salmonella enterica, about 20 hours at 35° C, tested as monoammonium salt
Proteus morganii = experiment: as above; assay type: cell-based; conditions: Morganella morganii, about 20 hours at 35° C, tested as monoammonium salt
Brucella abortus = experiment: microbe, parasite or virus in culture; assay type: cell-based; conditions: 20 h, read-out: Minimum Inhibitory concentration
[2] = test system: Bordetella bronchiseptica; experiment: broth dilution test, minimum inhibitory concentration; assay type: cell-based; conditions: about 20 hours at 35° C, tested as monoammonium salt
Pseudomonas aeruginosa = experiment: as above; assay type: cell-based; conditions: about 20 hours at 35° C, tested as monoammonium salt
Escherichia coli 47 = experiment: mice protection test; assay type: in vivo; conditions: Escherichia coli, 47, sc, 72 h; s.c., one hour after intravenous infection, observed 3 days; read-out: ED50 (total dose required to protect 50% of the infected mice)
Description: (§3) Comparative trials with ampicillin were performed in vivo according to the usual mice protection test procedure. The test compound was administered in graded dilutions to mice either subcutaneously (s.c.) in water or orally (or.) in combination with calcium carbonate one hour after intravenous infection with uniformly lethal doses of the test organism.

Escherichia coli 9 = experiment: mice protection test; assay type: in vivo; conditions: Escherichia coli, 9, sc, 72 h; s.c., one hour after intravenous infection, observed 3 days; read-out: ED50 (total dose required to protect 50% of the infected mice)
Description: as §3

[3] = test system: Klebsiella pneumoniae SK&F 4200; experiment: mice protection test; assay type: in vivo; conditions: 72 h, one hour after intravenous infection, observed 3 days, read-out: ED50 (total dose required to protect 50% of the infected mice)
Description: as §3

Proteus mirabilis 11 = experiment: mice protection test; assay type: in vivo; conditions: Proteus mirabilis, 11, sc, 72 h; s.c., one hour after intravenous infection, observed 3 days; read-out: ED50 (total dose required to protect 50% of the infected mice)
Description: as §3

[4] = test system: Salmonella brandebourg 22; experiment: mice protection test; assay type: in vivo; conditions: Salmonella, 22, sc, 72 h; s.c., one hour after intravenous infection, observed 3 days; read-out: ED50 (total dose required to protect 50% of the infected mice)
Description: as §3

[5] = test system: Salmonella enteritidis 24; experiment: mice protection test; assay type: in vivo; conditions: Salmonella enterica, sc, 72 h, s.c., one hour after intravenous infection, observed 3 days, read-out: ED50 (total dose required to protect 50% of the infected mice)
Description: as §3

Salmonella panama 20 = experiment: mice protection test; assay type: in vivo; conditions: Salmonella enterica, 20, sc, 72 h; s.c., one hour after intravenous infection, observed 3 days; read-out: ED50 (total dose required to protect 50% of the infected mice)
Description: as §3

Shigella flexneri 25 = experiment: mice protection test; assay type: in vivo; conditions: Shigella flexneri, 25, sc, 72 h; s.c., one hour after intravenous infection, observed 3 days; read-out: ED50 (total dose required to protect 50% of the infected mice)
Description: as §3

[6] = test system: Staphylococcus aureus 663; experiment: mice protection test; assay type: in vivo; conditions: Staphylococcus aureus, 663, sc, 72 h; s.c., one hour after intravenous infection, observed 3 days; read-out: ED50 (total dose required to protect 50% of the infected mice)
Description: as §3

[7] = test system: Vibrio parahaemoliticus 194; experiment: mice protection test; assay type: in vivo; conditions: Vibrio, 194, 72 h; oral with calcium carbonate, one hour after intravenous infection, observed 3 days; read-out: ED50 (total dose required to protect 50% of the infected mice)
Description: as §3

in vivo [8] = experiment: in vivo; design: species or system mice; conditions: mouse, sc, 20 mg/kg
Text: (§4) Plasma samples were adequately diluted with sterile water and assayed according to the usual agar diffusion method, using Bacillus subtilis ATCC 6633 as the test organism.

in vivo [9] = experiment: in vivo; design: species or system rats; conditions: rat, sc, 20 mg/kg
Text: as §4

in vivo [10] = experiment: in vivo; design: species or system dogs; conditions: dog, sc, 20 mg/kg
Text: as §4

physchem = assay type: physicochemical; conditions: reconstituted gastric juice, pH 1.3
Text: Antibiotic RIT D-2214 can be colorimetrically assayed by the classical hydroxylamine method of penicillin assay. […] Recoveries were estimated according to the hydroxylamine assay method.

mice = conditions: mouse, in vivo, iv, 500 mg/kg
solubility = assay type: physicochemical
[11] = test system: Gram-positive and Gram-negative bacteria; experiment: inhibitory activity against growth of bacteria; assay type: cell-based; conditions: compared with the RIT 2214 form named in the sentence
Description: as §1, §2

Staphylococcus aureus = experiment: broth dilution test, minimum inhibitory concentration; assay type: cell-based; conditions: about 20 hours at 35° C, tested as monoammonium salt
Description: as §1, §2

Escherichia coli = experiment: as above; assay type: cell-based; conditions: broth dilution, about 20 hours at 35° C, tested as monoammonium salt, read-out: Minimum Inhibitory concentration
Aerobacter aerogenes = experiment: as above; assay type: cell-based; conditions: Klebsiella aerogenes; broth dilution, about 20 hours at 35° C; tested as monoammonium salt; read-out: Minimum Inhibitory concentration
Salmonella paratyphi = experiment: as above; assay type: cell-based; conditions: Salmonella enterica, 20 h, read-out: Minimum Inhibitory concentration
Proteus mirabilis = experiment: as above; assay type: cell-based; conditions: broth dilution, about 20 hours at 35° C, tested as monoammonium salt, read-out: Minimum Inhibitory concentration

SMILES: CC1(C)S[C@@H]2[C@H](NC(=O)[C@H](N)c3ccccc3)C(=O)N2[C@H]1C(=O)O [Ampicillin, ampicillin, reference compound]
- MIC (Corynebacterium xerosis): 0.1 µg/mL
- MIC (Shigella sonnei): 2.5 µg/mL
- MIC [1]: 20 µg/mL
- MIC (Bacillus subtilis): 0.3 µg/mL
- MIC (E. coli Pen. resistant): 80 µg/mL
- MIC (Alcaligenes faecalis): 1.6 µg/mL
- MIC (Klebsiella pneumoniae): 40 µg/mL
- MIC (Salmonella meleagridis): 0.6 µg/mL
- MIC (Salmonella typhi): 0.6 µg/mL (≈ 1.72 µM)
- MIC (Salmonella typhimurium): 40 µg/mL
- MIC (Salmonella panama): 2.5 µg/mL
- MIC (Salmonella anatum): 0.6 µg/mL
- MIC (Proteus morganii): 20 µg/mL
- MIC (Brucella abortus): 0.6 µg/mL (≈ 1.72 µM)
- MIC [2]: 0.6 µg/mL
- MIC (Pseudomonas aeruginosa): 80 µg/mL
- ED50 (Escherichia coli 47): 23.6 mg/kg
- ED50 (Escherichia coli 9): 11.5 mg/kg
- ED50 ([3]; oral with calcium carbonate): 50.4 mg/kg
- ED50 ([3]; sc, s.c.): 36.7 mg/kg
- ED50 (Proteus mirabilis 11): 14.8 mg/kg
- ED50 [4]: 36.4 mg/kg
- ED50 [5]: 55.6 mg/kg
- ED50 (Salmonella panama 20): 22 mg/kg
- ED50 (Shigella flexneri 25): > 100 mg/kg
- ED50 [6]: < 11 mg/kg
- ED50 [7]: 17.9 mg/kg
- concentration at 5 min (in vivo [8]): 6500 ng/mL
- concentration at 0.25 h (in vivo [8]): 9000 ng/mL
- concentration at 0.5 h (in vivo [8]): 3500 ng/mL
- concentration at 1 h (in vivo [8]): 1000 ng/mL
- concentration at 5 min (in vivo [9]): 7000 ng/mL
- concentration at 0.25 h (in vivo [9]): 13000 ng/mL
- concentration at 1 h (in vivo [9]): 5000 ng/mL
- concentration at 2 h (in vivo [9]): 2500 ng/mL
- concentration at 0.25 h (in vivo [10]): 13000 ng/mL
- concentration at 0.5 h (in vivo [10]): 18000 ng/mL
- concentration at 1 h (in vivo [10]): 18000 ng/mL
- concentration at 2 h (in vivo [10]): 9000 ng/mL
- half-life (physchem): 6.5 h

SMILES: CC1(C)S[C@@H]2[C@H](NC(=O)CSC[C@@H](N)C(=O)O)C(=O)N2[C@H]1C(=O)O
- detectable toxicity (mice): does not show any detectable toxicity
- solubility in methanol (solubility; methanol): slightly soluble in methanol
- solubility in other organic solvents (solubility; organic solvents other than methanol): insoluble in other organic solvents
- solubility in water (solubility; water): very soluble in water

SMILES: CC1(C)S[C@@H]2[C@H](NC(=O)CSCC(N)C(=O)O)C(=O)N2[C@H]1C(=O)O (mixture of isomers) [RIT DL-2214]
- antibacterial activity relative to another RIT 2214 form [11]: approximately half

SMILES: CC1(C)S[C@@H]2[C@H](NC(=O)CSC[C@H](N)C(=O)O)C(=O)N2[C@H]1C(=O)O [RIT L-2214]
- MIC (Shigella sonnei): 80 µg/mL
- MIC (Staphylococcus aureus): 1.25 µg/mL
- MIC [1]: 80 µg/mL
- MIC (Bacillus subtilis): 0.31 µg/mL
- MIC (Escherichia coli): 40 µg/mL
- MIC (E. coli Pen. resistant): 80 µg/mL
- MIC (Aerobacter aerogenes): 20 µg/mL
- MIC (Klebsiella pneumoniae): 80 µg/mL
- MIC (Salmonella paratyphi): 20 µg/mL (≈ 53 µM)
- MIC (Proteus mirabilis): 20 µg/mL
- MIC (Proteus morganii): 80 µg/mL
- MIC (Pseudomonas aeruginosa): 80 µg/mL
